From US12357695B2, “Peptides and nanoparticles for intracellular delivery of molecules” (AADIGEN, LLC, priority 2019, dated 2025)
Entries after “also recorded” stand apart in the source; their conditions may differ. Square brackets hold non-standard residues; d marks the D form. Primed or numbered codes have the meaning given here. Ends that are not written are not given here. Stearyl = stearyl group covalently linked to the N-terminus; PEG4′ = four-unit PEG spacer; PEG2′ = two-unit PEG spacer; PEG7′ = (PEG)7 moiety; Ahx = NCCCCCC(=O)O; Ava = NCCCCC(=O)O; βAla = NCCC(=O)O

How the values were obtained:
mice or rat models = test: Summary of cargo delivery to targeted organ (Table 1); assay type: in vivo; details: cargoes and route (IV, IM, SQ, NB) per peptide as listed in Table 1
Text: Table 1 lists a summary of cell-penetrating peptides that have been proven successful in delivering various cargo molecules to on or more targeted organ (e.g., by intravenous (IV), intramuscular (IM), or subcutaneous (SQ) administration, or intratraccheal instillation or nebulization (NB)) in mice or rat models.

293T cells = test: Cellular delivery of Luciferase mRNA, luciferase expression at 72 hrs; assay type: cell-based; details: 0.25 μg Luc mRNA; for reduction of efficiency / luciferase expression by modification or linker vs unmodified ADGN peptide: absence of serum or heparan sulfate; for luciferase expression: absence of serum or heparan sulfate treatment; for reduction of efficiency / luciferase expression after serum treatment: complexes incubated 3 hrs in 25% serum prior transfection
Description: FIGS. 1A-1C show luciferase expression in 293T cells treated with ADGN-peptide/mRNA complexes. 293T cells cultured in 48 well plates were transfected with ADGN-peptide nanoparticles. ADGN-100, ADGN-106, ADGN-100RI, ADGN-106RI, ADGN-100 Stearyl, ADGN-Hydro1, ADGN-Hydro2, ADGN-Hydro3, ADGN-Hydro4, ADGN-Hydro5, ADGN-Hydro6 and ADGN-peptide/ADGN-100PEG 10% nanoparticles containing 0.25 μg mRNA were formed in sterile water, diluted in sterile water containing 5% Sucrose and filtered with 0.45 μm PES filters. ADGN/mRNA complexes were incubated for 3 hrs in the presence of either 25% serum or heparan sulfate prior transfection. Luciferase expression was monitored 72 hours post transfection and results were reported as RLU (luminescence):mg of protein.
Complex formation with mRNA. The following protocols were used for the transfection of 2-5 106 Cells or Cells at confluency of about 70-80% cultured in 24 well plates. ADGN peptide/mRNA particles were prepared at a 20:1 molar ratio of ADGN-Peptide/mRNA. using (0.25 μg) mRNA. Luc mRNA (0.25 μg) was diluted in 20 μl of sterile water (GIBCO) at room temperature. 5 μl Final Peptide Solution was added to obtain a total volume of 20 μl. The volume was adjusted to 50 μl with sterile water and was mixed gently with vortex 1 min low speed and incubated 30 min at room temperature. Then the volume was made up to 100 μl by adding sterile water containing 5% sucrose, and the solution was mixed gently with vortex 1 min low speed and incubate 5 min at 37° C. and then was proceeded to cell transfection.
Transfection protocol. Protocol is reported for 24 well plate format. Cells were cultured in Dulbecco's Modified Eagle's Medium (DMEM), supplemented with 2 mM glutamine, 1% antibiotics (streptomycin 10,000 μg/mL, penicillin, 10,000 IU/mL) and 10% (w/v) foetal calf serum (FCS), at 37° C. in a humidified atmosphere containing 5% CO2. 24 well plates seeded with 150,000 cells the day prior to transfection were grown to 50-60% confluence and set up to be at about 70% confluences at the time of transfection. Before transfection, cells were washed twice with DMEM. Cells were then overlaid with 0.1 ml of ADGN-peptide/cargo complex solution containing 0.25 μg mRNA, 0.15 μg plasmid DNA or 10-25 nM siRNA, mixed gently, and incubated for 10 min at 37° C. 0.2 mL of fresh DMEM, were added and cells were incubated for 20 min at 37° C. 1 mL of complete DMEM containing 15% FCS were then added in order to reach a final FCS concentration of 10%, without removing the overlay of ADGN-peptide/cargo complexes. Cells were returned to the incubator (37° C., 5% CO2) and 72 hrs post transfection.
ADGN-peptides were evaluated for cellular delivery of Luciferase mRNA in 293T cells. A single dose of mRNA of 0.25 μg was evaluated. Luc mRNA (0.25 μg) in sterile water (GIBCO) were mixed with ADGN-100, ADGN-100RI, ADGN-106, ADGN-106RI, ADGN-100 Stearyl, ADGN-Hydro1, ADGN-Hydro2, ADGN-Hydro5 and ADGN-Hydro6. ADGN-peptide/mRNA complexes were filtered with 0.45 μm PES filter. In order to evaluate the stability of the ADGN/mRNA complexes in high serum and cell culture conditions, the complexes were incubated for 3 hrs in the presence of either 25% serum or heparan sulfate prior transfection, then 293T cells were transfected and Luciferase expression was monitored at 72 hrs.
ADGN-106 peptides containing YIGSR targeting sequence were evaluated for cellular delivery of Luciferase mRNA in 293T cells. A single dose of mRNA of 0.25 μg was evaluated. Luc mRNA (0.25 μg) in sterile water (GIBCO) were mixed with ADGN-106 and ADGN-106Hydro variant. ADGN-peptide/mRNA complexes were filtered with 0.45 μm PES filter. The ADGN-106/mRNA complexes were incubated for 3 hrs in the presence of 25% serum prior transfection, then 293T cells were transfected and Luciferase expression was monitored at 72 hrs.

ASSLNIA-Ava-KWWERWWREWPRKRR (ASSLNIAKWWERWWREWPRKRR; Ava linker; VARIANT 7, 8 Linked by a 5-amino pentanoic acid) [VEPEP-3C]
Targeted Organ (mice or rat models): Muscle

Ac-(PEG)2-βA-KWRSALWRWRLWRVRSWSR-NH2 ({Ac-PEG2′}-[βAla]KWRSALWRWRLWRVRSWSR-NH2) [ADGN-100-PEG2]
Targeted Organ (mice or rat models): Lung:Liver/; also recorded: Spleen

Ac-(PEG)2-βALWRALWRLWRSLWRLLWKA-NH2 ({Ac-PEG2′}-[βAla]LWRALWRLWRSLWRLLWKA-NH2) [ADGN-106-PEG2]
Targeted Organ (mice or rat models): Lung/Kidney/; also recorded: Spleen

Ac-CKRAVRWWLRWASRWFSRWAWWR [VEPEP-9B]
Targeted Organ (mice or rat models): Heart

Ac-GYVS-Ava(CH2)2-ALWRALWRLWRSLWRLLWKA-NH2 [ADGN-106 hydro-4]
Targeted Organ (mice or rat models): Brain/Kidney

Ac-SYTSSTM-ava-KWWERWWREWPRKRR (SYTSSTMKWWERWWREWPRKRR; N-acetyl, Ava linker; VARIANT 1 N-terminal acetylation; VARIANT 7, 8 Linked by a 5-amino pentanoic acid) [VEPEP-3E]
Targeted Organ (mice or rat models): Brain

Ac-YIGSR-(G)2-ALWRALWRLWRSLWRLLWKA-NH2 [ADGN-106-Hydro-7]
reduction of efficiency / luciferase expression by modification or linker vs unmodified ADGN peptide (293T cells): 28%

Ac-YIGSR-(G)4-ALWRALWRLWRSLWRLLWKA-NH2 (Ac-YIGSRGGGGALWRALWRLWRSLWRLLWKA-NH2) [ADGN-106-Hydro-1]
luciferase expression (293T cells): high level of luciferase expression
reduction of efficiency / luciferase expression after serum treatment (293T cells): 40%

Ac-YIGSR-(PEG)2-βA-KWRSALWRWRLWRVRSWSR-NH2 (Ac-YIGSR[PEG2′][βAla]KWRSALWRWRLWRVRSWSR-NH2) [ADGN-100-HYPEG2]
Targeted Organ (mice or rat models): Lung

Ac-YIGSR-(PEG)2-βALWRALWRLWRSLWRLLWKA-NH2 (Ac-YIGSR[PEG2′][βAla]LWRALWRLWRSLWRLLWKA-NH2) [ADGN-106-HYPEG2]
luciferase expression (293T cells): high level of luciferase expression
reduction of efficiency / luciferase expression after serum treatment (293T cells): 21%
Targeted Organ (mice or rat models): Tumor/Lung

Ac-YIGSR-(PEG)4-βA-KWRSALWRWRLWRVRSWSR-NH2 (Ac-YIGSR[PEG4′][βAla]KWRSALWRWRLWRVRSWSR-NH2) [ADGN-100-HYPEG4]
Targeted Organ (mice or rat models): Lung

Ac-YIGSR-(PEG)4-βALWRALWRLWRSLWRLLWKA-NH2 (Ac-YIGSR[PEG4′][βAla]LWRALWRLWRSLWRLLWKA-NH2) [ADGN-106-HYPEG4]
reduction of efficiency / luciferase expression by modification or linker vs unmodified ADGN peptide (293T cells): 35%
Targeted Organ (mice or rat models): Tumor/Lung

Ac-YIGSR-(PEG)7-βALWRALWRLWRSLWRLLWKA-NH2 (Ac-YIGSR[PEG7′][βAla]LWRALWRLWRSLWRLLWKA-NH2) [ADGN-106-HYPEG7]
reduction of efficiency / luciferase expression by modification or linker vs unmodified ADGN peptide (293T cells): 72%

Ac-YIGSR-A-KWRSALWRWRLWRVRSWSR-NH2 (Ac-YIGSR[βAla]KWRSALWRWRLWRVRSWSR-NH2; SMILES CC[C@H](C)[C@H](NC(=O)[C@H](Cc1ccc(O)cc1)NC(C)=O)C(=O)NCC(=O)N[C@@H](CO)C(=O)N[C@@H](CCCNC(=N)N)C(=O)NCCC(=O)N[C@@H](CCCCN)C(=O)N[C@@H](Cc1c[nH]c2ccccc12)C(=O)N[C@@H](CCCNC(=N)N)C(=O)N[C@@H](CO)C(=O)N[C@@H](C)C(=O)N[C@@H](CC(C)C)C(=O)N[C@@H](Cc1c[nH]c2ccccc12)C(=O)N[C@@H](CCCNC(=N)N)C(=O)N[C@@H](Cc1c[nH]c2ccccc12)C(=O)N[C@@H](CCCNC(=N)N)C(=O)N[C@@H](CC(C)C)C(=O)N[C@@H](Cc1c[nH]c2ccccc12)C(=O)N[C@@H](CCCNC(=N)N)C(=O)N[C@H](C(=O)N[C@@H](CCCNC(=N)N)C(=O)N[C@@H](CO)C(=O)N[C@@H](Cc1c[nH]c2ccccc12)C(=O)N[C@@H](CO)C(=O)N[C@@H](CCCNC(=N)N)C(N)=O)C(C)C) [ADGN-100-Hydro]
Targeted Organ (mice or rat models): Lung/Kidney

Ac-YIGSR-Ahx-ALWRALWRLWRSLWRLLWKA-NH2 (Ac-YIGSR[Ahx]ALWRALWRLWRSLWRLLWKA-NH2; SMILES CC[C@H](C)[C@H](NC(=O)[C@H](Cc1ccc(O)cc1)NC(C)=O)C(=O)NCC(=O)N[C@@H](CO)C(=O)N[C@@H](CCCNC(=N)N)C(=O)NCCCCCC(=O)N[C@@H](C)C(=O)N[C@@H](CC(C)C)C(=O)N[C@@H](Cc1c[nH]c2ccccc12)C(=O)N[C@@H](CCCNC(=N)N)C(=O)N[C@@H](C)C(=O)N[C@@H](CC(C)C)C(=O)N[C@@H](Cc1c[nH]c2ccccc12)C(=O)N[C@@H](CCCNC(=N)N)C(=O)N[C@@H](CC(C)C)C(=O)N[C@@H](Cc1c[nH]c2ccccc12)C(=O)N[C@@H](CCCNC(=N)N)C(=O)N[C@@H](CO)C(=O)N[C@@H](CC(C)C)C(=O)N[C@@H](Cc1c[nH]c2ccccc12)C(=O)N[C@@H](CCCNC(=N)N)C(=O)N[C@@H](CC(C)C)C(=O)N[C@@H](CC(C)C)C(=O)N[C@@H](Cc1c[nH]c2ccccc12)C(=O)N[C@@H](CCCCN)C(=O)N[C@@H](C)C(N)=O) [ADGN-106 hydro-7]
Targeted Organ (mice or rat models): Lung/Tumor

Ac-YIGSR-Aun(CH2)6-ALWRALWRLWRSLWRLLWKA-NH2 [ADGN-106-Hydro-5]
luciferase expression (293T cells): high level of luciferase expression
reduction of efficiency / luciferase expression after serum treatment (293T cells): 15%
Targeted Organ (mice or rat models): Tumor/Lung/; also recorded: Pancreas/Liver

Ac-YIGSR-Ava(CH2)2-ALWRALWRLWRSLWRLLWKA-NH2 [ADGN-106-Hydro-3]
luciferase expression (293T cells): high level of luciferase expression
reduction of efficiency / luciferase expression after serum treatment (293T cells): 32%
Targeted Organ (mice or rat models): Tumor/Muscle

Ac-YIGSR-Balwralwrlwrslwrllwka-NH2 (Ac-YIGSR[βAla]LWRALWRLWRSLWRLLWKA-NH2) [ADGN-106-Hydro]
luciferase expression (293T cells): high level of luciferase expression
reduction of efficiency / luciferase expression after serum treatment (293T cells): 80%

KSYDTY-ava-ALRWLRWASRWFSRWAWR (KSYDTY[Ava]ALRWLRWASRWFSRWAWR) [VEPEP-9A]
Targeted Organ (mice or rat models): Brain/Lymphnode

KSYDTYAAETRRWASRWFSRWAWWR (not fully specified (N-terminus, C-terminus)) [VEPEP-9D]
Targeted Organ (mice or rat models): Brain/Lymphnode

LSSRLDA-Ava-KWWERWWREWPRKRR (LSSRLDAKWWERWWREWPRKRR; Ava linker; VARIANT 7, 8 Linked by a 5-amino pentanoic acid) [VEPEP-3D]
Targeted Organ (mice or rat models): Heart/Muscle

Stearyl-βA-ALWRALWRLWRSLWRLLWKA-NH2 (Stearyl-[βAla]ALWRALWRLWRSLWRLLWKA-NH2) [ADGN-106 Stearyl]
Targeted Organ (mice or rat models): Liver/Spleen

beta-AKWFERWFREWPRKRR (N-terminal beta-alanine; VARIANT 1 beta-A) [VEPEP-3a]
Targeted Organ (mice or rat models): Kidney/Pancreas

beta-ALRWWLRWASRWFSRWAWWR (N-terminal beta-alanine; VARIANT 1 beta-A) [VEPEP-9]
Targeted Organ (mice or rat models): Brain/Liver/; also recorded: Lung/Kidney/

beta-RWWLRWASRWFSRWAWR (not fully specified (residue 1, N-terminus); printed as beta-RWWLRWASRWFSRWAWR) [VEPEP-9C]
Targeted Organ (mice or rat models): Liver/Lung/; also recorded: Kidney/Brain
